{"source": "patent US20040171089A1", "about": "“High-throughput screening assay for identifying substances capable of modulating cell survival and/or proliferation” (priority 2001, published 2004)", "key": {"[1]": {"system": "human primary microvascular endothelial cells", "assay": "Fura-2 calcium imaging, microvascular endothelial cells", "type": "cell-based", "settings": "microvascular endothelial cells; FIG. 2b: IPAG 10 μM, rimcazole 10-30 μM, (+)-pentazocine 10-30 μM", "description": "Human adult dermal microvascular endothelial cells (catalogue number CC-2543; cells had been characterised by tests for cell type markers: positive for acetylated LDL uptake, positive for factor VIII related antigen, negative for alpha smooth muscle actin)\n(§1) For calcium imaging experiments cells were plated onto poly-L-lysine coated coverslips (13 mm). Single cell imaging was performed utilizing a MiraCal Imaging facility (Life Science Resources, Cambridge, U.K.) with a Nikon Diaphot-TMD inverted epifluorescence microscope equipped with a ×40 oil immersion objective and Sutter filter wheel. The imager was equipped with a Lambert intensifier 1187 (Life Sciences Resources) providing a ×30 enhancement of the fluorescent signal, thus limiting phototoxicity.\n(§2) Fura-2 acetoxymethyl ester (fura-2 AM) incubations with the cells were performed at 37° C. in a medium containing (in mM): 120 NaCl, 3.5 KCl, 0.4 KH2PO4, 5 NaHCO3, 1.2 Na2SO4, 15 glucose, 1.2 MgCl2, 1 CaCl2, and 20 TES [N-tris(hydroxymethyl) methyl-2-aminoethane sulphonic acid] pH adjusted to 7.4 with NaOH. Typically cells were incubated in 3 μM fura-2 AM for 25 min., which permitted sufficient accumulation of free fura-2 in the cell cytoplasm. Cells were then illuminated alternately at 340 and 380 nm with the emitted 505 nm light being detected by a photomultiplier. Free fura emits maximally when excited at 380 nm, whilst the calcium bound fura has a maximal emission when excited at 340 nm. Thus the ratio of emission when alternately excited at 340/380 nm is a measure of the calcium concentration in equilibrium with the chelator. Changes of intracellular calcium were quantified as the percentage increase of the fluorescent ratio (determined at ˜505 nm) obtained by exciting the test cells alternatively at 340 nm (optimal for calcium bound dye) and 380 nm."}, "MDA MB 468 cells [2]": {"system": "MDA MB 468 cells", "assay": "Fura-2 calcium imaging, MDA MB 468 cells", "type": "cell-based, human", "settings": "for % increase of cytosolic calcium (peak 340/380 nm fura-2 ratio): MDA 468 cells; for effect on cytosolic calcium levels (in words): MDA MB 468 cells, FIG. 2a: IPAG 1-10 μM, rimcazole 10-30 μM, (+)-SKF 10,047 10 μM, (+)-pentazocine 10-30 μM, ibogaine 10-50 μM", "description": "Human mammary carcinoma (MDA MB 468) cells were obtained from ATCC, Manassas, Va., USA; catalogue number HTB-132; cells were grown in accordance with the manufacturer's instructions.\nas §1, §2"}, "[3]": {"system": "microvascular endothelial cells", "settings": "equimolar, 10 micromolar, GB0007842.8, WO 0174359; cited from earlier work"}, "[4]": {"system": "microvascular endothelial cells", "assay": "MTS cell viability/proliferation assay, microvascular endothelial cells", "type": "cell-based, human", "settings": "1-10 μM", "description": "(§3) This was carried out using an MTS assay (reagents from Promega Corporation, Madison Wis., USA) which is a modification of the MTT assay (as described in Jacobson et al, 1994 EMBO J Vol 13 pp1899-1910). The assay depends on conversion of the MTS tetrazolium compound to a coloured formazan product in metabolically active cells; it is therefore an assay of viable cell number. A decline in values implies cell killing as long as cell disappearance by apoptosis in untreated cell populations is absent or negligible (as with most healthy primary cell populations).\n(§4) Cells were seeded in the range 1.5×10^5-1.8×10^5 cells per ml of culture medium in 96 well microtitre plates and allowed to attach in a humidifed atmosphere of 5% CO2 in air at 37 deg C. Drugs were added 18-24 hours later and cell viability/proliferation measured at time intervals up to 48-72 hours post-drug addition when the experiment was terminated. Mean (±SE) values at each time point were obtained from wells in triplicate.\n(§5) Cell viability was measured as follows: 20 μl of MTS solution (Promega) was added to wells and incubated at 37 deg C. for 3 hours during which time a coloured formazan product is generated in viable cells. […] Viable cell number was then measured by reading absorbance at 490 nm in a Dynex microtitre plate reader. […]"}, "MDA MB 468 cells [5]": {"system": "MDA MB 468 cells", "assay": "MTS cell viability/proliferation assay, MDA MB 468 cells", "type": "cell-based, human", "settings": "MDA 468 cells; 1-10 μM", "description": "as §3, §4, §5"}, "[6]": {"system": "human prostate epithelial cells", "assay": "MTS cell viability/proliferation assay, prostate epithelial cells", "type": "cell-based", "settings": "1-10 μM", "description": "as §3, §4, §5"}, "adult dermal fibroblasts": {"system": "adult dermal fibroblasts", "assay": "MTS cell viability/proliferation assay, adult dermal fibroblasts", "type": "cell-based, human", "settings": "1-10 μM", "description": "as §3, §4, §5"}, "mammary epithelial cells": {"system": "mammary epithelial cells", "assay": "MTS cell viability/proliferation assay, mammary epithelial cells", "type": "cell-based, human", "settings": "1-10 μM", "description": "Human mammary epithelial cells (catalogue number CC-2551; stain positive for cytokeratins 14, 18 and 19)\nas §3\nCells were seeded in the range 1.5×10^5-1.8×10^5 cells per ml of culture medium in 96 well microtitre plates and allowed to attach in a humidifed atmosphere of 5% CO2 in air at 37 deg C. Drugs were added 18-24 hours later and cell viability/proliferation measured at time intervals up to 48-72 hours post-drug addition when the experiment was terminated. […]\nas §5"}, "phospholipase C [7]": {"system": "phospholipase C", "assay": "GFP-PH PLCdelta 1 relocalisation (PLC activation) in MDA MB 468 cells", "type": "cell-based, human", "settings": "for relocalisation of GFP-PH PLC delta 1 from membrane to cytosol: 100 μM, approximately 10 minutes, DMEM with 10% fetal bovine serum", "quoted_text": "The inventors introduced a recombinant plasmid vector encoding a hybrid protein comprised of the pleckstrin homology (PH) domain of phospholipase C (PLC) delta 1 fused green fluorescent protein (GFP) (GFP-PH PLCdelta 1) into MDA MB 468 mammary carcinoma cells. A standard transfection method (Fugene-6—Roche) was used. […] Cells were maintained in DMEM with 10% fetal bovine serum at 37 deg C. in 5% CO2 before and during exposure to sigma ligands which were present at a range of concentrations. Effects on the GFP-PH PLCdelta 1 protein were studied in two ways: by time lapse microscopy (using a Leica inverted fluorescence microscope and a Hammamatsu Orca charge-coupled device camera, linked to an Improvision Open Lab image processing workstation). This enabled the time course of effects to be determined. […] Control cell populations received drug vehicle alone and were analysed at the same time points.\nGFP-PH PLC delta 1—expressing MDA MB 468 cells were exposed to sigma antagonists in 1 mM and 0 mM (nominally calcium-free) buffer (as used for the calcium imaging experiments, described above) and monitored by time lapse imaging as above."}, "phospholipase C [8]": {"system": "phospholipase C", "assay": "Quantitative HPLC assay of inositol phosphates (IP3 levels) in MDA MB 468 cells", "type": "cell-based, human", "settings": "[3H] inositol labelled cells", "from_the_text": "The PH domain of PLC delta 1 has a higher affinity for the phosphoinositide IP3 compared to PIP2. IP3 is produced from PIP2 in response to activation of PLC. Since PIP2 is membrane-bound whereas IP3 is cytosolic, the activation of PLC can be visualised in living cells by the relocalisation of GFP-PH PLC delta 1 from membrane to cytosol. A proviso to this interpretation is that, in conditions where PIP2 levels decline relative to IP3, the net effect would be relocalisation of GFP-PH PLC delta 1 from membrane to cytosol. Thus, to exclude this possibility, quantitative phospholipid assays were performed. (In this analysis, cells were labelled with [^3H] inositol in inositol-free DMEM (In Vitrogen—Gibco) with dialysed FBS for 48 hours before exposure to sigma ligands. Cells were then lysed and subjected to quantitative HPLC assay). These assays confirmed that IP3 levels had risen in cells exposed to sigma antagonists (IP3 levels had risen to 240% and 166% of the level prior to provision of the test substance in response to IPAG and rimcazole respectively) but had not risen in cells exposed to sigma-1 or sigma-2 agonists. This confirmed activation of PLC by sigma antagonists."}, "[9]": {"system": "sigma-1 compared to sigma-2 sites", "settings": "Abou-Gharbia et al 1993; cited from earlier work"}}, "note": "“Also recorded” adds a separate entry of the source.", "data": [{"compound": "CC(C)=CCN1CCC2(C)c3cc(O)ccc3CC1C2C", "note": "(single isomer, unassigned; (+)) [(+)-pentazocine]", "values": [{"measurement": "increase in cytosolic calcium", "setting": "[1]", "value": "little or no effect"}, {"measurement": "% increase of cytosolic calcium (peak 340/380 nm fura-2 ratio)", "setting": "MDA MB 468 cells [2]; 10 μM", "value": "5±7", "unit": "%"}, {"measurement": "% increase of cytosolic calcium (peak 340/380 nm fura-2 ratio)", "setting": "MDA MB 468 cells [2]; 30 μM", "value": "−7±6", "unit": "%"}, {"measurement": "effect on cytosolic calcium levels (in words)", "setting": "MDA MB 468 cells [2]", "value": "little or no rise; also recorded: little or no effect"}, {"measurement": "prevention of rimcazole- and IPAG-induced death and cytostasis", "setting": "[3]", "value": "completely prevented"}]}, {"compound": "C[C@@H]1CN(CCCn2c3ccccc3c3ccccc32)C[C@H](C)N1", "note": "[rimcazole]", "values": [{"measurement": "% increase of cytosolic calcium (peak 340/380 nm fura-2 ratio)", "setting": "MDA MB 468 cells [2]; 30 μM", "value": "92±8", "unit": "%"}, {"measurement": "effect on cytosolic calcium levels (in words)", "setting": "MDA MB 468 cells [2]", "value": "increase cytosolic calcium levels"}, {"measurement": "Cytotoxicity", "setting": "[4]", "value": "cytotoxic"}, {"measurement": "Cytotoxicity", "setting": "MDA MB 468 cells [5]", "value": "cytotoxic"}, {"measurement": "Cytotoxicity", "setting": "[6]", "value": "not cytotoxic"}, {"measurement": "Cytotoxicity", "setting": "adult dermal fibroblasts", "value": "not cytotoxic"}, {"measurement": "Cytotoxicity", "setting": "mammary epithelial cells", "value": "not cytotoxic"}, {"measurement": "relocalisation of GFP-PH PLC delta 1 from membrane to cytosol", "setting": "phospholipase C [7]", "value": "pronounced relocalisation"}, {"measurement": "localisation of GFP-PH PLC delta 1", "setting": "phospholipase C [7]; nominally calcium-free buffer (0 mM calcium)", "value": "remained membrane-localised"}, {"measurement": "IP3 levels, % of the level prior to provision of the test substance", "setting": "phospholipase C [8]", "value": 166, "unit": "%"}, {"measurement": "selectivity for sigma-1 compared to sigma-2 sites", "setting": "[9]", "value": "approximately 5 fold"}]}, {"compound": "(+)-SKF 10,047", "values": [{"measurement": "effect on cytosolic calcium levels (in words)", "setting": "MDA MB 468 cells [2]", "value": "little or no effect"}, {"measurement": "effect on cytosolic calcium levels (in words)", "setting": "MDA MB 468 cells [2]; listed as (+)-SKF-10,047", "value": "little or no rise"}]}, {"compound": "ibogaine", "values": [{"measurement": "effect on cytosolic calcium levels (in words)", "setting": "MDA MB 468 cells [2]", "value": "little or no rise; also recorded: fails to induce a significant rise"}, {"measurement": "relocalisation of GFP-PH PLC delta 1 from membrane to cytosol", "setting": "phospholipase C [7]", "value": "failed to produce this effect"}]}]}
